Measured values published in PMC7406636, “In vivo and in silico characterization of apocynin in reducing organ oxidative stress: A pharmacokinetic and pharmacodynamic study” (Pharmacology Research & Perspectives, 2020).

Assay: Time-dependent distribution of apocynin in plasma, urine and tissues after iv bolus injection (HPLC-MS/MS)
Format: in vivo, mouse
Settings: plasma, brain and liver samples after iv bolus injection of apocynin, HPLC-MS/MS
Procedure: All studies were performed in accordance with the protocols approved by the Home Office under the Animals (Scientific Procedures) Act 1986, UK. For the PKPD study, male CD1 mice (Charles River Ltd) at 12 weeks of age with a body weight range between 25 and 30 g were used for the study. Mice were fasted 12 hours before bolus iv injection of apocynin at 5 mg/kg body weight (dosing volume 5 mL/kg) via a lateral tail vein. Control mice were injected with vehicle (solvent of apocynin) at each time points. Four mice/per time points were sacrificed at 0, 1, 2.5, 5, 15, 30, 60 minutes and then at 3, 6, 12, and 24 hours after iv injection of apocynin. Blood samples were collected and centrifuged at 2000 g, 4°C for 10 minutes for plasma collection. Urine samples were collected from bladders. Tissues were harvested for further experiments.
The detection of apocynin in tissue sample was performed as described previously with some modifications. ^17 In brief, apocynin was detected using an Accela HPLC coupled to a linear ion‐trap tandem mass spectrometry (LTQ‐Orbitrap XL; Thermo‐Fisher Scientific) (HPLC‐MS/MS) in the negative ion mode. Phenacetin (500 ng/mL) was used as an internal standard in every vial. A reversed‐phase 50 × 2.1 mm ID, […], 175 Å pore C18 Hypersil Gold column (Thermo Scientific) was used with injection volume set at 5 µL for the separation of apocynin and phenacetin. Calibration curve used for PK analysis was constructed by spiking apocynin in mouse plasma using eight calibrators ranging from 1 to 10000 ng/mL with great reproducibility and R ^2 ≥ 0.996 for subsequent 5 separate experiments on different days. […] Limit of detection for apocynin was set up at signal to noise ratio ≥ 3, ^18 which is 1 ng/mL in our system. The limitation of quantification was set up at signal to noise ratio ≥ 10, which is 10 ng/mL in our system. Orbitrap component was used for the full scan spectra of apocynin and diapocynin.

COc1cc(C(C)=O)cc(-c2cc(C(C)=O)cc(OC)c2O)c1O [Diapocynin]
diapocynin detection as metabolite in samples: not detected
